# Patent US9499550B2 (BRISTOL-MYERS SQUIBB COMPANY, priority 2012, dated 2016)
# pEC50: −log10 of the molar value. Read-outs that look alike come from different tables or passages of the source.
# Assays:
# [1] = tested on: HCV genotype 1b (Con1) replicon in HUH-7 cells; assay: HCV replicon luciferase reporter assay, genotype 1b; assay type: cell-based; details: Hepatitis C virus, Huh-7, 72 h, HCV genotype 1b replicon luciferase, 3 days incubation
# How it was run: (§1)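 Replicon inhibition for both genotypes was measured as Renilla luciferase signal (EnduRen, 7.5 μM final, 2 h) after 3-day, 37° C exposure of replicon-bearing HUH-7 cells in 4% FCS DMEM, 0.5% DMSO. The 1b construct carries S1179I; the 1a H77 construct carries P1496L and S2204I. Twenty-point, 3-fold dilutions were fitted four-parametrically for EC50, and CC50 was taken from multiplexed Cell Titer-Blue.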
# [2] = tested on: HCV genotype 1a (H77 strain) replicon in HUH-7 cells; assay: HCV replicon luciferase reporter assay, genotype 1a; assay type: cell-based; details: Hepatitis C virus, Huh-7, 72 h, HCV genotype 1a replicon luciferase, 3 days incubation
# How it was run: as §1
Compound,"pEC50 ([1]; read-out: LE_1b (EC50, range))","pEC50 ([2]; read-out: LE_1a (EC50, range))",pEC50 ([1]; read-out: LE_1b (EC50)),pEC50 ([2]; read-out: LE_1a (EC50))
"C[C@@H]1CC/C=C\[C@@H]2C[C@@]2(C(=O)NS(=O)(=O)C2(CF)CC2)NC(=O)[C@@H]2C[C@@H](Oc3nccc4c5c(ccc34)OCCO5)CN2C(=O)[C@@H](NC(=O)OC(C)(C)C(F)(F)F)[C@H](C)C1 [Compound 5323, 1,1,1-trifluoro-2-methylpropan-2-yl((2R,6S,7R,9R,13aS,14aR,16aS,Z)-2-((2,3-dihydro-[1,4]dioxino[2,3-f]isoquinolin-7-yl)oxy)-14a-(((1-(fluoromethyl)cyclopropyl)sulfonyl)carbamoyl)-7,9-dimethyl-5,16-dioxo-1,2,3,5,6,7,8,9,10,11,13a,14,14a,15,16,16a-hexadecahydrocyclopropa[e]pyrrolo[1,2-a][1,4]diazacyclopentadecin-6-yl)carbamate]",> 8.26,> 8.26,,
"CC[C@@H]1C[C@H](C)CC/C=C\[C@@H]2C[C@@]2(C(=O)NS(=O)(=O)C2(C)CC2)NC(=O)[C@@H]2C[C@@H](Oc3nccc4c5c(ccc34)N(C)CCO5)CN2C(=O)[C@H]1NC(=O)OC(C)(C)C(F)(F)F [Compound 5326, 1,1,1-trifluoro-2-methylpropan-2-yl((2R,6S,7R,9R,13aS,14aR,16aS,Z)-7-ethyl-9-methyl-2-((4-methyl-3,4-dihydro-2H-[1,4]oxazino[2,3-f]isoquinolin-7-yl)oxy)-14a-(((1-methylcyclopropyl)sulfonyl)carbamoyl)-5,16-dioxo-1,2,3,5,6,7,8,9,10,11,13a,14,14a,15,16,16a-hexadecahydrocyclopropa[e]pyrrolo[1,2-a][1,4]diazacyclopentadecin-6-yl)carbamate]",> 8.26,> 8.26,,
"CC[C@@H]1C[C@H](C)CC/C=C\[C@@H]2C[C@@]2(C(=O)NS(=O)(=O)C2(C)CC2)NC(=O)[C@@H]2C[C@@H](Oc3nccc4c5c(ccc34)N(C)CCO5)CN2C(=O)[C@H]1NC(=O)OC(C)(C)C(C)(F)F [Compound 5328, 3,3-difluoro-2-methylbutan-2-yl((2R,6S,7R,9R,13aS,14aR,16aS,Z)-7-ethyl-9-methyl-2-((4-methyl-3,4-dihydro-2H-[1,4]oxazino[2,3-f]isoquinolin-7-yl)oxy)-14a-(((1-methylcyclopropyl)sulfonyl)carbamoyl)-5,16-dioxo-1,2,3,5,6,7,8,9,10,11,13a,14,14a,15,16,16a-hexadecahydrocyclopropa[e]pyrrolo[1,2-a][1,4]diazacyclopentadecin-6-yl)carbamate]",> 8.26,> 8.26,,
"CC[C@@H]1C[C@H](C)CC/C=C\[C@@H]2C[C@@]2(C(=O)NS(=O)(=O)C2(C)CC2)NC(=O)[C@@H]2C[C@@H](Oc3nccc4c5c(ccc34)N(C)CCO5)CN2C(=O)[C@H]1NC(=O)OC(C)(C)C [Compound 5330, tert-butyl ((2R,6S,7R,9R,13aS,14aR,16aS,Z)-7-ethyl-9-methyl-2-((4-methyl-3,4-dihydro-2H-[1,4]oxazino[2,3-f]isoquinolin-7-yl)oxy)-14a-(((1-methylcyclopropyl)sulfonyl)carbamoyl)-5,16-dioxo-1,2,3,5,6,7,8,9,10,11,13a,14,14a,15,16,16a-hexadecahydrocyclopropa[e]pyrrolo[1,2-a][1,4]diazacyclopentadecin-6-yl)carbamate]",> 8.26,> 8.26,,
"CC[C@@H]1C[C@@H](C)CC/C=C\[C@@H]2C[C@@]2(C(=O)NS(=O)(=O)C2(C)CC2)NC(=O)[C@@H]2C[C@@H](Oc3nccc4c5c(ccc34)OCCO5)CN2C(=O)[C@H]1NC(=O)OC(C)(C)C(C)(F)F [Compound 5331, 3,3-difluoro-2-methylbutan-2-yl((2R,6S,7R,9S,13aS,14aR,16aS,Z)-2-((2,3-dihydro-[1,4]dioxino[2,3-f]isoquinolin-7-yl)oxy)-7-ethyl-9-methyl-14a-(((1-methylcyclopropyl)sulfonyl)carbamoyl)-5,16-dioxo-1,2,3,5,6,7,8,9,10,11,13a,14,14a,15,16,16a-hexadecahydrocyclopropa[e]pyrrolo[1,2-a][1,4]diazacyclopentadecin-6-yl)carbamate]",> 8.26,6.99 to 8.32,8.40,7.89
"CC[C@@H]1C[C@H](C)CC/C=C\[C@@H]2C[C@@]2(C(=O)NS(=O)(=O)C2(C)CC2)NC(=O)[C@@H]2C[C@@H](Oc3nccc4c5c(ccc34)OCCO5)CN2C(=O)[C@H]1NC(=O)OC(C)(C)C(C)(F)F [Compound 5332, 3,3-difluoro-2-methylbutan-2-yl((2R,6S,7R,9R,13aS,14aR,16aS,Z)-2-((2,3-dihydro-[1,4]dioxino[2,3-f]isoquinolin-7-yl)oxy)-7-ethyl-9-methyl-14a-(((1-methylcyclopropyl)sulfonyl)carbamoyl)-5,16-dioxo-1,2,3,5,6,7,8,9,10,11,13a,14,14a,15,16,16a-hexadecahydrocyclopropa[e]pyrrolo[1,2-a][1,4]diazacyclopentadecin-6-yl)carbamate]",> 8.26,> 8.26,,
"CC[C@@H]1C[C@@H](C)CC/C=C\[C@@H]2C[C@@]2(C(=O)NS(=O)(=O)C2(C)CC2)NC(=O)[C@@H]2C[C@@H](Oc3nccc4c5c(ccc34)OCCO5)CN2C(=O)[C@H]1NC(=O)OC(C)(C)C(F)(F)F [Compound 5333, 1,1,1-trifluoro-2-methylpropan-2-yl((2R,6S,7R,9S,13aS,14aR,16aS,Z)-2-((2,3-dihydro-[1,4]dioxino[2,3-f]isoquinolin-7-yl)oxy)-7-ethyl-9-methyl-14a-(((1-methylcyclopropyl)sulfonyl)carbamoyl)-5,16-dioxo-1,2,3,5,6,7,8,9,10,11,13a,14,14a,15,16,16a-hexadecahydrocyclopropa[e]pyrrolo[1,2-a][1,4]diazacyclopentadecin-6-yl)carbamate]",6.99 to 8.32,6.99 to 8.32,,
"CC[C@@H]1C[C@H](C)CC/C=C\[C@@H]2C[C@@]2(C(=O)NS(=O)(=O)C2(C)CC2)NC(=O)[C@@H]2C[C@@H](Oc3nccc4c5c(ccc34)OCCO5)CN2C(=O)[C@H]1NC(=O)OC(C)(C)C(F)(F)F [Compound 5334, 1,1,1-trifluoro-2-methylpropan-2-yl((2R,6S,7R,9R,13aS,14aR,16aS,Z)-2-((2,3-dihydro-[1,4]dioxino[2,3-f]isoquinolin-7-yl)oxy)-7-ethyl-9-methyl-14a-(((1-methylcyclopropyl)sulfonyl)carbamoyl)-5,16-dioxo-1,2,3,5,6,7,8,9,10,11,13a,14,14a,15,16,16a-hexadecahydrocyclopropa[e]pyrrolo[1,2-a][1,4]diazacyclopentadecin-6-yl)carbamate]",> 8.26,> 8.26,,
"CC[C@@H]1C[C@@H](C)CC/C=C\[C@@H]2C[C@@]2(C(=O)NS(=O)(=O)C2CC2)NC(=O)[C@@H]2C[C@@H](Oc3nccc4c5c(ccc34)OCCO5)CN2C(=O)[C@H]1NC(=O)OC(C)(C)C(C)(F)F [Compound 5335, 3,3-difluoro-2-methylbutan-2-yl((2R,6S,7R,9S,13aS,14aR,16aS,Z)-14a-((cyclopropylsulfonyl)carbamoyl)-2-((2,3-dihydro-[1,4]dioxino[2,3-f]isoquinolin-7-yl)oxy)-7-ethyl-9-methyl-5,16-dioxo-1,2,3,5,6,7,8,9,10,11,13a,14,14a,15,16,16a-hexadecahydrocyclopropa[e]pyrrolo[1,2-a][1,4]diazacyclopentadecin-6-yl)carbamate]",> 8.26,6.99 to 8.32,8.69,8.19
"CC[C@@H]1C[C@H](C)CC/C=C\[C@@H]2C[C@@]2(C(=O)NS(=O)(=O)C2CC2)NC(=O)[C@@H]2C[C@@H](Oc3nccc4c5c(ccc34)OCCO5)CN2C(=O)[C@H]1NC(=O)OC(C)(C)C(C)(F)F [Compound 5336, 3,3-difluoro-2-methylbutan-2-yl((2R,6S,7R,9R,13aS,14aR,16aS,Z)-14a-((cyclopropylsulfonyl)carbamoyl)-2-((2,3-dihydro-[1,4]dioxino[2,3-f]isoquinolin-7-yl)oxy)-7-ethyl-9-methyl-5,16-dioxo-1,2,3,5,6,7,8,9,10,11,13a,14,14a,15,16,16a-hexadecahydrocyclopropa[e]pyrrolo[1,2-a][1,4]diazacyclopentadecin-6-yl)carbamate]",> 8.26,> 8.26,,
"CC[C@@H]1C[C@@H](C)CC/C=C\[C@@H]2C[C@@]2(C(=O)NS(=O)(=O)C2CC2)NC(=O)[C@@H]2C[C@@H](Oc3nccc4c5c(ccc34)OCCO5)CN2C(=O)[C@H]1NC(=O)OC(C)(C)C(F)(F)F [Compound 5337, 1,1,1-trifluoro-2-methylpropan-2-yl((2R,6S,7R,9S,13aS,14aR,16aS,Z)-14a-((cyclopropylsulfonyl)carbamoyl)-2-((2,3-dihydro-[1,4]dioxino[2,3-f]isoquinolin-7-yl)oxy)-7-ethyl-9-methyl-5,16-dioxo-1,2,3,5,6,7,8,9,10,11,13a,14,14a,15,16,16a-hexadecahydrocyclopropa[e]pyrrolo[1,2-a][1,4]diazacyclopentadecin-6-yl)carbamate]",> 8.26,6.99 to 8.32,,
"CC[C@@H]1C[C@H](C)CC/C=C\[C@@H]2C[C@@]2(C(=O)NS(=O)(=O)C2CC2)NC(=O)[C@@H]2C[C@@H](Oc3nccc4c5c(ccc34)OCCO5)CN2C(=O)[C@H]1NC(=O)OC(C)(C)C(F)(F)F [Compound 5338, 1,1,1-trifluoro-2-methylpropan-2-yl((2R,6S,7R,9R,13aS,14aR,16aS,Z)-14a-((cyclopropylsulfonyl)carbamoyl)-2-((2,3-dihydro-[1,4]dioxino[2,3-f]isoquinolin-7-yl)oxy)-7-ethyl-9-methyl-5,16-dioxo-1,2,3,5,6,7,8,9,10,11,13a,14,14a,15,16,16a-hexadecahydrocyclopropa[e]pyrrolo[1,2-a][1,4]diazacyclopentadecin-6-yl)carbamate]",> 8.26,> 8.26,,
